Measured values taken from patent publication US6852327B1, “Composition attracting insects pertaining to the coleoptera family and use thereof in the control of plagues in palm-trees and related plants” (Instituto Nacional de Investigacion y Tecnologia Agraria y …, priority 1998, dated 2005).

Tested on: Rhynchophorus palmarum
Test: Field trapping study of Rhynchophorus palmarum control in palm tree groves (baited traps, 1 month, French Guiana)
Type: in vivo
Conditions: second (last) Total capture column; period not printed separately (study dates March-May 1997); total insects in all traps with the same test substance
Source text: Study of Rhynchophorus palmarum Control in Palm Tree Groves
This experiment was designed to assess the control of Rhynchophorus palmarum control in ornamental, palm trees and in coconut palms according to the characteristics indicated hereunder.
Insect species against which the experiment was designed: Rhynchophorus palmarum, Coleoptera curculionidae, Rhynchophorinae.
Testing area: Cayenne—Remire Montjoly, French Guiana.
Plants: Ornamental palm tree groves and coconut palms.
Substances tested: • (a) Vegetal bait (sugar cane in 25 cm lengths cut lengthwise through the middle and fermented during 24 hours at 28° C., and Rhynchophorol (synthetic feromone) • (b) INIA 1 composition and Rhynchophorol. • (c) INIA 2 composition and Rhynchophorol. • (c) INIA 3 composition and Rhynchophorol. • (e) Reference specimen (only Rhynchophorol).
A randomly selected “double blind” test was repeated 4 times in traps installed over trash cans modified to include spreaders comprising a supporting agent capable of absorbing/adsorbing and releasing the compositions to be tested and designed to emit said compositions.
The vegetal bait, namely cut-up cane, was arranged in a bundle on the bottom of the trap can. Feromone (Rhynchophorol) was released from small hermetic plastic 200 μm envelopes loaded with 0.2 cm^3 of synthetic feromone spreading a minimum of 2 mg/day through pores in the trap. […]

## C/C=C/C(O)CC(C)C (stereo not shown) [(e), Rhynchophorol]
  Total capture: 3
